The assay deals with human kidney carcinoma cell line A498. As to the kind of experiment: Cell proliferation assay (WST-1), A498. In kind it is cell-based. The following applies: A498 cells, 48 hours treatment. Here is the method:
A498 cells were purchased from German Collection of Microorganisms and Cell Cultures, Germany. RC-124 cell line was purchased from CLS, Germany. Minimum Essential Medium (MEM), McCoy's 5a and Dulbecco's Modified Eagle's Medium (DMEM) were purchased from PAA, Austria. Fetal calf serum was purchased from Invitrogen, Germany. Non-essential amino acids and sodium pyruvate were purchased from Sigma-Aldrich, Germany.
The human kidney carcinoma cell line A498 was cultured in Minimum Essential Medium (MEM, with Earl's salts). The African green monkey cell line BSC-1 and the human embryonic kidney cell line HEK293 were maintained in Dulbecco's Modified Eagle's Medium (DMEM). The human kidney cell line RC-124 was cultured in McCoy's 5a medium. All media were supplemented with 10% fetal calf serum and penicillin and streptomycin. The cells were maintained at 37° C. in a 5% CO2 humidified atmosphere. Cells were discarded after 20 passages.
Cell proliferation was determined as a function of the metabolic activity by means of the cell proliferation reagent WST-1 (Roche, Mannheim Germany). 4000 cells were seeded in quadruplicates into the wells of 96 well plates and were allowed to attach for 24 hours prior to treatment with different compound concentrations for 48 hours. All samples contained 0.1% DMSO. After the treatment, the WST-1 reagent was added to the cells according to the manufacturer's protocol. The absorbance was measured with the Inifinite® M200 plate reader (Tecan, Austria) at 450/690 nm. Mean values (n=4) were used to generate dose-response curves by fitting to a four-parameter IC50 equation. The IC50 values for each compound were calculated with the software GraFit 5.0.
The following IC50 values were obtained for the human kidney carcinoma cell line A498. Very similar IC50 values were obtained for the African green monkey cell line BSC-1, the human embryonic kidney cell line HEK293 and the human kidney cell line RC-124.
(In general: Tetrazolium dyes change colour on reduction, which living cells bring about.)

What is called IC50 is the concentration that inhibits the measured activity by half. A low value points to inhibition by little substance.

On to `CCC12C[C@@H](OC(=O)CO)[C@@](C)(O1)[C@@H]1CC[C@@H](C)[C@H]1[C@@H]2OC(=O)/C=C/c1ccccc1` [Compound 13], for which the IC50 was 500 to 5000 nM.

In the case of `C[C@@H]1CC[C@@H]2[C@@H]1[C@H](OC(=O)/C=C/c1ccccc1)[C@]1(C)C[C@@H](OC(=O)CO)[C@@]2(C)O1` [Compound 14], the IC50 was 500 to 5000 nM. As to `CC(C)C12C[C@@H](OC(=O)CO)[C@@](C)(O1)[C@@H]1CC[C@@H](C)[C@H]1[C@@H]2OC(=O)/C=C/C1CCCCC1` [Compound 15], the half-inhibitory concentration (IC50) is less than 30 nM. In turn, `CC(C)C12C[C@@H](OC(=O)CO)[C@@](C)(O1)[C@@H]1CC[C@@H](C)[C@H]1[C@@H]2OC(=O)c1ccc2ccccc2c1` [Compound 16] displayed an IC50 of less than 30 nM. In turn, `C/C(=C\C(=O)O[C@H]1[C@@H]2[C@H](C)CC[C@H]2[C@]2(C)OC1(C(C)C)C[C@H]2OC(=O)CO)c1ccccc1` [Compound 17] came in with an IC50 of less than 30 nM.

`CC(C)C12C[C@@H](OC(=O)CO)[C@@](C)(O1)[C@@H]1CC[C@@H](C)[C@H]1[C@@H]2OC(=O)/C=C/c1ccc(F)cc1` [Compound 18] yielded an IC50 of 500 to 5000 nM. Under `CC(C)C12C[C@@H](OC(=O)CO)[C@@](C)(O1)[C@@H]1CC[C@@H](C)[C@H]1[C@@H]2OC(=O)/C=C/c1ccc(Cl)cc1` [Compound 19] stands 500 to 5000 nM. Take `CC(C)C12C[C@@H](OC(=O)CO)[C@@](C)(O1)[C@@H]1CC[C@@H](C)[C@H]1[C@@H]2OC(=O)/C=C/c1ccc2c(c1)OCO2` [Compound 23]: the IC50 fell in the range of 500 to 5000 nM.

As for `CC(C)C12C[C@@H](OC(=O)CO)[C@@](C)(O1)[C@@H]1CC[C@@H](C)[C@H]1[C@@H]2OC(=O)/C=C/c1c(F)cccc1Cl` [Compound 24], the IC50 is 30 to 100 nM. Under `C/C(=C\c1ccccc1)C(=O)O[C@H]1[C@@H]2[C@H](C)CC[C@H]2[C@]2(C)OC1(C(C)C)C[C@H]2OC(=O)CO` [Compound 26] stands 500 to 5000 nM; under `CC(C)C12C[C@@H](OC(=O)CO)[C@@](C)(O1)[C@@H]1CC[C@@H](C)[C@H]1[C@@H]2OC(=O)c1ccc(Cl)cc1` [Compound 29], 500 to 5000 nM; under `CC(C)C12C[C@@H](OC(=O)CO)[C@@](C)(O1)[C@@H]1CC[C@@H](C)[C@H]1[C@@H]2OC(=O)c1ccc([N+](=O)[O-])cc1` [Compound 30], 500 to 5000 nM.

On to `CC(C)C12C[C@@H](OC(=O)CO)[C@@](C)(O1)[C@@H]1CC[C@@H](C)[C@H]1[C@@H]2OC(=O)c1ccc(Cl)c(Cl)c1` [Compound 31], for which the IC50 lay in the range of 100 to 500 nM. Then `CC(C)[C@@]12C[C@@H](OC(=O)CO)C(C)(O1)[C@@H]1CC[C@@H](C)[C@H]1[C@@H]2OC(=O)c1ccc2c(c1)CCCC2` [Compound 36], with less than 30 nM. On to `CC(C)[C@@]12C[C@@H](OC(=O)CO)C(C)(O1)[C@@H]1CC[C@@H](C)[C@H]1[C@@H]2OC(=O)C1CCc2ccccc2C1` (stereo partly drawn) [Compound 37], for which the IC50 was 30 to 100 nM. Under `CC(C)[C@@]12C[C@@H](OC(=O)CO)C(C)(O1)[C@@H]1CC[C@@H](C)[C@H]1[C@@H]2OC(=O)C1CCC2CCCCC2C1` (stereo partly drawn) [Compound 38] stands 30 to 100 nM; under `Cc1c(C(=O)O[C@H]2[C@@H]3[C@H](C)CC[C@H]3C3(C)O[C@@]2(C(C)C)C[C@H]3OC(=O)CO)ccc2ccccc12` [Compound 39], less than 30 nM; under `Cc1c(C(=O)O[C@H]2[C@@H]3[C@H](C)CC[C@H]3C3(C)O[C@@]2(C(C)C)C[C@H]3OC(=O)CO)ccc2c1CCCC2` [Compound 40], less than 30 nM. Regarding `CC(C)[C@@]12C[C@@H](OC(=O)CO)C(C)(O1)[C@@H]1CC[C@@H](C)[C@H]1[C@@H]2OC(=O)c1ccc(C2(C(F)(F)F)N=N2)cc1` [Compound 41], the IC50 lay within 30 to 100 nM. `COCC(=O)O[C@@H]1C[C@]2(C(C)C)OC1(C)[C@@H]1CC[C@@H](C)[C@H]1[C@@H]2OC(=O)/C=C/c1ccccc1` [Compound 43] returned an IC50 of 500 to 5000 nM.

Turning to `C#CCCCC(=O)OCC(=O)O[C@@H]1C[C@]2(C(C)C)OC1(C)[C@@H]1CC[C@@H](C)[C@H]1[C@@H]2OC(=O)/C=C/c1ccccc1` [Compound 44], the IC50 lay within 100 to 500 nM. Under `C#CCCCC(=O)O[C@@H]1C[C@]2(C(C)C)OC1(C)[C@@H]1CC[C@@H](C)[C@H]1[C@@H]2OC(=O)/C=C/c1ccccc1` [Compound 45] stands 500 to 5000 nM.

Regarding `C#CCOCC(=O)O[C@@H]1C[C@]2(C(C)C)OC1(C)[C@@H]1CC[C@@H](C)[C@H]1[C@@H]2OC(=O)/C=C/c1ccccc1` [Compound 46], the IC50 lay within 500 to 5000 nM.

As to `CC(C)C12C[C@@H](OC(=O)[C@H](C)O)[C@@](C)(O1)[C@@H]1CC[C@@H](C)[C@H]1C2OC(=O)/C=C/c1ccccc1` (stereo partly drawn) [Compound 52], the IC50 lay in the range of 500 to 5000 nM. Under `CC(C)C12C[C@@H](OC(=O)[C@@H](C)O)[C@@](C)(O1)[C@@H]1CC[C@@H](C)[C@H]1C2OC(=O)/C=C/c1ccccc1` (stereo partly drawn) [Compound 53] stands 100 to 500 nM; under `CC(C)C12C[C@@H](OC(=O)[C@H](C)O)[C@@](C)(O1)[C@@H]1CC[C@@H](C)[C@H]1C2OC(=O)c1ccc2ccccc2c1` (stereo partly drawn) [Compound 54], 100 to 500 nM; under `CC(C)C12C[C@@H](OC(=O)[C@@H](C)O)[C@@](C)(O1)[C@@H]1CC[C@@H](C)[C@H]1C2OC(=O)c1ccc2ccccc2c1` (stereo partly drawn) [Compound 55], 30 to 100 nM. Then `C#CC[C@@H](O)C(=O)O[C@@H]1CC2(C(C)C)O[C@@]1(C)[C@@H]1CC[C@@H](C)[C@H]1C2OC(=O)c1ccc2c(c1)CCCC2` (stereo partly drawn) [Compound 56], with 500 to 5000 nM; and `C#CC[C@@H](O)C(=O)O[C@@H]1CC2(C(C)C)O[C@@]1(C)[C@@H]1CC[C@@H](C)[C@H]1C2OC(=O)c1ccc2ccccc2c1` (stereo partly drawn) [Compound 57], with 500 to 5000 nM.

`C#CC[C@@H](O)C(=O)O[C@@H]1CC2(C(C)C)O[C@@]1(C)[C@@H]1CC[C@@H](C)[C@H]1C2OC(=O)c1ccc(C2(C(F)(F)F)N=N2)cc1` (stereo partly drawn) [Compound 58] gave an IC50 of 500 to 5000 nM.

Values taken from US20140057950A1, “DERIVATIVES OF ENGLERIN FOR THE TREATMENT OF CANCER” (MAX-PLANCK-GESELLSCHAFT ZUR FORDERUNG DE WISSENSCHAFTEN E.V., priority 2010, published 2014).
